Measured values taken from patent US20230159509A1 (Amathus Therapeutics, Inc., priority 2020, published 2023).

Biological target: T1, TRAP1 enzyme (Homo sapiens, UniProt Q12931)
T1 construct: 150 nM Trap1 enzyme was incubated with various concentrations of the test compound
T1 sequence (Q12931 60-704): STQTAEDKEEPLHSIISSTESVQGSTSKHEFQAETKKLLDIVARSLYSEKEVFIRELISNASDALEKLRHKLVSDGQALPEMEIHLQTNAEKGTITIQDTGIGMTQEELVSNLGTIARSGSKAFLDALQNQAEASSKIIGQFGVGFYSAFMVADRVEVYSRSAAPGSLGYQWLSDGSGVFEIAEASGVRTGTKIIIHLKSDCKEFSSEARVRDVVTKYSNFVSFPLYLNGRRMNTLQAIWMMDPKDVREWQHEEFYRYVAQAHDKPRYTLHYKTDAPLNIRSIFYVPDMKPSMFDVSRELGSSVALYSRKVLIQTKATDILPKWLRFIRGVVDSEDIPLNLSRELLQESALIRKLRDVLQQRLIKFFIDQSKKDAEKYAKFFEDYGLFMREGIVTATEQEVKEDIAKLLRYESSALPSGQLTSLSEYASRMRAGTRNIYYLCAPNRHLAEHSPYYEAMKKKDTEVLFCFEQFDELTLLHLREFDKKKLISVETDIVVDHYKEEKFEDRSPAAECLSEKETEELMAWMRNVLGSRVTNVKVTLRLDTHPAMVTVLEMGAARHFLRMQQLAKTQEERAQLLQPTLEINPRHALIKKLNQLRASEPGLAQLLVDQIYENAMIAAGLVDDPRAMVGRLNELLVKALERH
Test: ADP Glo assay of TRAP1 ATPase activity
Format: biochemical
Conditions: for EC50: concentration for half maximal activation, read-out: ADP GLO DRC: GeoMean EC50; for Emax: maximal percent activation, read-out: ADP GLO DRC: Mean Emax
Description: Potency of test compounds to modulate the ATPase activity of TRAP1 enzyme was evaluated using ADP Glo assay. The assay is based on quantification of the ADP generated from ATP in the ATPase reaction. The assay is performed in two steps; first, after the ATPase reaction an equal volume of ADP-Glo™ Reagent is added to terminate the ATPase reaction and deplete the remaining ATP. Second, the Kinase Detection Reagent is added to simultaneously convert ADP to ATP and allow the newly synthesized ATP to be measured using a luciferase/luciferin reaction.
All the assays were carried out in a 384-well Proxiplate. The buffer used was 25 mM Pipes pH-7.5, 40 mM KCl, 0.05 mM MgCl2, 0.025% BSA, 0.316 mM EGTA, 0.003% Empigen, 0.01% Igepal. 150 nM Trap1 enzyme was incubated with various concentrations of the test compound (0.79 μM-100 μM) at 37° C. for 30 mins (except in blank wells). 20 μM ATP was added to each well to start the reaction. The plate was spun for 1 min at 1200 rpm and then incubated at 37° C. for 60 mins. 5 μl of ADP Glo reagent was added to all the wells and spun the plate for 1 min at 1200 rpm and kept it on a shaker at ambient temperature for 60 mins. 10 μl of kinase detection mix was added to all the wells and the plate was read for Luminescence at 495 nm. The amount of ADP released was estimated from ATP/ADP standard curve generated at the same experimental conditions. Emax (Maximal percent activation) and EC50 (concentration for half maximal activation) were estimated by fitting the dose response data to a sigmoidal curve fitting equation using Graphpad Prism software V. 8.

EC50 [µM]	Emax [%]	Compound
< 10	160 to 199	COc1ncc(NC(=O)c2ncc(-c3ccccc3)o2)cc1S(=O)(=O)Nc1ccc(F)cc1C(C)C [compound 1514]
10 to 20	160 to 199	COc1ncc(NC(=O)c2ncc(-c3ccccc3)o2)cc1S(=O)(=O)Nc1sc2c(c1C#N)CCCC2 [compound 1519]
20 to 100	200 to 300	COc1ncc(NC(=O)c2ncc(-c3ccccc3)o2)cc1S(=O)(=O)Nc1ccc2cnoc2c1 [compound 1525]
20 to 100	119 to 159	COc1ncc(NC(=O)c2ncc(-c3ccccc3)o2)cc1S(=O)(=O)Nc1cc(F)c(C#N)cc1F [compound 1538]
20 to 100	119 to 159	CCc1cccc2sc(NS(=O)(=O)c3cc(NC(=O)c4ncc(-c5ccccc5)o4)cnc3OC)nc12 [compound 1552]
20 to 100	200 to 300	COc1ncc(NC(=O)c2ncc(-c3ccccc3)o2)cc1S(=O)(=O)Nc1cc(-c2ccccc2C)nn1C [compound 1567]
20 to 100	200 to 300	COc1ncc(NC(=O)c2ncc(-c3ccccc3)o2)cc1S(=O)(=O)Nc1cc(-c2ccc(C)cc2)nn1C [compound 1568]
10 to 20	160 to 199	COc1ncc(NC(=O)c2ncc(-c3ccccc3)o2)cc1S(=O)(=O)Nc1cc(C)n(C(C)C)n1 [compound 1571]
10 to 20	160 to 199	COc1ncc(NC(=O)c2ncc(-c3ccccc3)o2)cc1S(=O)(=O)Nc1cccc2cnc(C)cc12 [compound 1624]
10 to 20	160 to 199	COc1ncc(NC(=O)c2ncc(-c3ccccc3)o2)cc1S(=O)(=O)Nc1cc(C2CCCCC2)no1 [compound 1640]
20 to 100	119 to 159	CCCC(C)c1cc(NS(=O)(=O)c2cc(NC(=O)c3ncc(-c4ccccc4)o3)cnc2OC)on1 (stereo not shown) [compound 1648]
20 to 100	160 to 199	COc1ncc(NC(=O)c2ncc(-c3ccccc3)o2)cc1S(=O)(=O)Nc1c(C)c(-c2ccccc2)nn1C [compound 1661]
10 to 20	119 to 159	COc1cccc(OC)c1NS(=O)(=O)c1cc(NC(=O)c2ncc(-c3ccccc3)o2)cnc1OC [compound 1706]
20 to 100	119 to 159	COc1ncc(NC(=O)c2csc(-c3ccccc3)n2)cc1S(=O)(=O)Nc1c(C)cnn1C [compound 1729]
20 to 100	200 to 300	COc1ncc(NC(=O)c2csc(-c3ccccc3)n2)cc1S(=O)(=O)Nc1cc(C(F)(F)F)n[nH]1 [compound 1746]
10 to 20	160 to 199	COc1ncc(NC(=O)c2csc(-c3ccccc3)n2)cc1S(=O)(=O)Nc1cc(C)n(C(C)C)n1 [compound 1754]
20 to 100	119 to 159	COCCOc1cc(NS(=O)(=O)c2cc(NC(=O)c3csc(-c4ccccc4)n3)cnc2OC)ccn1 [compound 1760]
20 to 100	200 to 300	COc1ncc(NC(=O)c2csc(-c3ccccc3)n2)cc1S(=O)(=O)Nc1cccn2nc(C)nc12 [compound 1768]
20 to 100	119 to 159	CCOc1cc(NS(=O)(=O)c2cc(NC(=O)c3csc(-c4ccccc4)n3)cnc2OC)ccn1 [compound 1773]
20 to 100	119 to 159	COc1ncc(NC(=O)c2csc(-c3ccccc3)n2)cc1S(=O)(=O)Nc1ccnc2cccnc12 [compound 1779]

EC50 [µM]	Emax [%]	Compound
20 to 100	119 to 159	COc1ncc(NC(=O)c2csc(-c3ccccc3)n2)cc1S(=O)(=O)Nc1ccc(C)nc1C [compound 1780]
20 to 100	119 to 159	COc1ncc(NC(=O)c2csc(-c3ccccc3)n2)cc1S(=O)(=O)Nc1cc(C)no1 [compound 1784]
20 to 100	200 to 300	COc1ncc(NC(=O)c2csc(-c3ccccc3)n2)cc1S(=O)(=O)Nc1ccc(C#N)nc1 [compound 1785]
20 to 100	119 to 159	COc1ncc(NC(=O)c2csc(-c3ccccc3)n2)cc1S(=O)(=O)Nc1cc(C)cnc1C [compound 1792]
10 to 20	200 to 300	COc1ncc(NC(=O)c2ncc(-c3ccccc3)o2)cc1S(=O)(=O)Nc1c(C(C)C)ccnc1C(C)C [compound 1808]
20 to 100	160 to 199	CNc1ncc(C(F)(F)F)cc1NS(=O)(=O)c1cc(NC(=O)c2ncc(-c3ccccc3)o2)cnc1OC [compound 1824]
10 to 20	200 to 300	COc1ncc(NC(=O)c2csc(-c3ccccc3)n2)cc1S(=O)(=O)Nc1nc(C(C)(C)C)ns1 [compound 1839]
20 to 100	119 to 159	COc1cc(NS(=O)(=O)c2cc(NC(=O)c3csc(-c4ccccc4)n3)cnc2OC)ccn1 [compound 1878]
20 to 100	160 to 199	COc1ncc(NC(=O)c2csc(-c3ccccc3)n2)cc1S(=O)(=O)Nc1ccnc(C(F)(F)F)c1 [compound 1895]
20 to 100	200 to 300	COc1ncc(NC(=O)c2ncc(-c3ccccc3)o2)cc1S(=O)(=O)Nc1cc(F)c(C)cc1C#N [compound 1898]
20 to 100	119 to 159	COc1ncc(NC(=O)c2ncc(-c3ccccc3)o2)cc1S(=O)(=O)Nc1ccc2c(n1)CCC2 [compound 1908]
20 to 100	119 to 159	COc1ncc(NC(=O)c2csc(-c3ccccc3)n2)cc1S(=O)(=O)Nc1c(C#N)cnn1C [compound 1911]
20 to 100	200 to 300	COc1ncc(NC(=O)c2csc(-c3ccccc3)n2)cc1S(=O)(=O)Nc1nnn(Cc2ccccc2)n1 [compound 1912]
20 to 100	119 to 159	COc1ncc(NC(=O)c2csc(-c3ccccc3)n2)cc1S(=O)(=O)Nc1ccc2nn[nH]c2c1 [compound 1926]
20 to 100	200 to 300	COc1ncc(NC(=O)c2ccnc(Br)c2)cc1S(=O)(=O)Nc1c(C)cccc1C [compound 1935, 1,2-bromo-N-(5-(N-(2,6-dimethylphenyl)sulfamoyl)-6-methoxypyridin-3-yl)isonicotinamide]
< 10	119 to 159	COc1ncc(NC(=O)c2coc(-c3ccc(F)cc3)n2)cc1S(=O)(=O)Nc1c(C)cc(F)cc1C [compound 1937, N-(5-(N-(4-fluoro-2,6-dimethylphenyl)sulfamoyl)-6-methoxypyridin-3-yl)-2-(4-fluorophenyl) oxazole-4-carboxamide]
10 to 20	> 300	COc1ncc(NC(=O)c2ccnc(-c3cccnc3)c2)cc1S(=O)(=O)Nc1c(C)cccc1C [compound 1940, N-(5-(N-(2,6-dimethylphenyl)sulfamoyl)-6-methoxypyridin-3-yl)-[2,3′-bipyridine]-4-carboxamide]
< 10	160 to 199	COc1ncc(NC(=O)c2coc(-c3ccccc3)n2)cc1S(=O)(=O)Nc1c(C)cccc1Cl [compound 1941, N-(5-(N-(2-chloro-6-methylphenyl)sulfamoyl)-6-methoxypyridin-3-yl)-2-phenyloxazole-4-carboxamide]
10 to 20	> 300	COc1ncc(NC(=O)c2cccc(-c3ccnn3C)c2)cc1S(=O)(=O)Nc1c(C)cccc1C [compound 1942, N-(5-(N-(2,6-dimethylphenyl)sulfamoyl)-6-methoxypyridin-3-yl)-3-(1-methyl-1H-pyrazol-5-yl)benzamide]

Compound	EC50 [µM]	Emax [%]
COc1ncc(NC(=O)c2csc3c2C2CCN3CC2)cc1S(=O)(=O)Nc1ccc(Cl)cc1 [compound 1944, N-(5-(N-(4-chlorophenyl)sulfamoyl)-6-methoxypyridin-3-yl)-5,6-dihydro-4H-4,7-ethanothieno[2,3-b]pyridine-3-carboxamide]	10 to 20	200 to 300
COc1ncc(NC(=O)c2csc3c2C2CCN3CC2)cc1S(=O)(=O)Nc1c(C)cccc1C [compound 1946, N-(5-(N-(2,6-dimethylphenyl)sulfamoyl)-6-methoxypyridin-3-yl)-5,6-dihydro-4H-4,7-ethanothieno[2,3-b]pyridine-3-carboxamide]	< 10	160 to 199
